From article PMC8471001 (Biosensors, 2021)
“Also recorded” adds a separate entry of the source.

Columns and labels:
[1] = biological target: tyrosinase (EC 1.14.18.1, from mushroom); assay: Amperometric biosensor: tyrosinase immobilized on carbon black paste electrode, inhibition of catechol response; type: biochemical; details: for IC50: 0.1 M phosphate buffer pH 6.8, -0.15 V vs. Ag/AgCl; for IC50 / type of inhibition: immobilized tyrosinase; for type of inhibition: from shift of inhibition curve, 20 vs 200 µM catechol; for inhibition range of catechol response: 20 µM catechol
Protocol: The immobilization of tyrosinase onto the surface of the carbon black paste electrode (CBPE) was achieved by cross-linking with glutaraldehyde and bovine serum albumin (BSA) as reported elsewhere for several enzyme biosensors. In brief, the enzyme solution was first prepared by mixing 15 µL of Tyr (35 U/mL), 7.5 µL of BSA (1% w/v), and 7.5 µL of glutaraldehyde (0.25% w/v) on a glass slide. Then, 7.5 µL of the mixture was spread on the surface of a CBPE, and lastly, it was dried at room temperature for 1 h. Before electrochemical measurements, the enzyme electrode was placed under stirring for 10 min in PBS buffer to remove the enzyme not firmly immobilized. The electrodes were maintained at 4 °C in phosphate buffer, pH 6.8 until use.
The tyrosinase was immobilized on the surface of the carbon black paste electrode. The electrochemical measurements of o-quinone produced by the tyrosinase-based biosensor, in presence of catechol as substrate, were monitored by an amperometric measurement.
The enzyme activity assays were performed in an electrochemical cell containing 5 mL of 0.1 M phosphate buffer, pH 6.8 at 25 °C. The applied potential was fixed at −0.15 V.
To perform each amperometric measurement, the CBPE-Tyr electrode was dipped into an electrochemical cell containing 5 mL of 0.1 M phosphate buffer solution (pH 6.8) under constant magnetic stirring. The applied potential was fixed to −0.15 V versus Ag/AgCl. Once the baseline was established (10 min approximately), a defined amount of catechol solution was added to the measuring cell. […] Then, the inhibitor solutions were added consecutively each time a plateau was reached (approximately every 30 s). The addition of tyrosinase inhibitors causes an inhibition of the enzyme, consequently decreasing the amount of liberated enzymatic reaction products.
(§1) To evaluate the degree of inhibition (I%) of the tyrosinase activity, signal responses in the absence (I0) and the presence of an inhibitor (I1) were measured with either an electrochemical or colorimetric method. The degree of inhibition (I%) is expressed as follows: (1) I(%)=I0−I1/I0×100
When using the amperometric biosensor, the CBPE/Tyr modified electrode was immersed into a phosphate buffer solution at pH 6.8, under stirring and a fixed potential of −0.15 V. After stabilizing the baseline current, a fixed amount of catechol (substrate) was added to reach a steady-state current (I0) before adding the inhibitor. […] The concentration of inhibitors was increased to inhibit tyrosinase activity, and the current decrease (I1) was recorded.

mushroom tyrosinase = assay: Spectrophotometric progress-curve assay of free tyrosinase with L-tyrosine (half-time reaction t'1/2); type: biochemical; details: plot of t'1/2 versus inhibitor concentration at 0.5-3 mM L-tyrosine
Protocol: Substrate conversion was evaluated by measuring the increase in absorbance at 490 nm. The absorbance was sampled every 1 min, allowing each progression curve to be constructed in 40 min.
as §1

| Structure (SMILES) | IC50 ([1]; 20 µM catechol substrate) [µM] | IC50 ([1]; 200 µM catechol substrate) [µM] | type of inhibition [1] | inhibition range of catechol response ([1]; inhibitor 0.01 mM to 1.57 mM) | type of inhibition (mushroom tyrosinase) | inhibition range of catechol response ([1]; inhibitor 2.5 µM to 97.5 µM) | inhibition range of catechol response ([1]; inhibitor 5 µM to 275 µM) |
| --- | --- | --- | --- | --- | --- | --- | --- |
| [N-]=[N+]=[N-].[Na+] [sodium azide] | 1480 | 2000 | competed with catechol | 7–64% | – | – | – |
| O=c1cc(CO)occ1O [kojic acid] | – | – | competitive inhibition; also recorded: competed with catechol | – | competitive inhibition | 13–74% | – |
| O=C(O)c1ccccc1 [benzoic acid] | 119 | 500 | competed with catechol | – | – | – | 8–69% |
